Patent US20240115745A1, “COMPOUNDS COMPRISING A FIBROBLAST ACTIVATION PROTEIN LIGAND AND USE THEREOF” (3B PHARMACEUTICALS GMBH, priority 2021, published 2024)
Where two headings read alike, the source gives them in different places. *1 amine or outer side, *2 acyl side, *3 side chain or, on linkers, in order; H or OH if unused. Where a SMILES comes first, the peptide text is derived from it. Bridges are numbered along the chain shown (N, C = ends). [ ]: non-standard residue; d: D form. The star is where a group is joined. X4 = O=C(O)CN1CCN(CC(=O)O)CCN(CC(=O)NCCCOCCOCCOCCCN*)CCN(CC(=O)O)CC1; Suc = O=C(CCC(=O)[*:2])[*:1]; 4Amb = NCc1ccc(C(=O)O)cc1; Nle = CCCC[C@H](N)C(=O)O

Columns and labels:
[1] = target: T1, FAP-expressing human WI-38 fibroblasts (Homo sapiens, UniProt Q12884); assay: Competitive FACS binding assay;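 note: flow cytometry read-out of median Cy5 fluorescence on the cells, plotted versus test compound concentration, with IC50 derived by four-parameter logistic curve fitting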
T1 construct: FAP-expressing human WI-38 fibroblasts (ECACC) were cultured in EMEM; host or cells: WI-38 human fibroblasts
T1 sequence (Q12884 whole entry): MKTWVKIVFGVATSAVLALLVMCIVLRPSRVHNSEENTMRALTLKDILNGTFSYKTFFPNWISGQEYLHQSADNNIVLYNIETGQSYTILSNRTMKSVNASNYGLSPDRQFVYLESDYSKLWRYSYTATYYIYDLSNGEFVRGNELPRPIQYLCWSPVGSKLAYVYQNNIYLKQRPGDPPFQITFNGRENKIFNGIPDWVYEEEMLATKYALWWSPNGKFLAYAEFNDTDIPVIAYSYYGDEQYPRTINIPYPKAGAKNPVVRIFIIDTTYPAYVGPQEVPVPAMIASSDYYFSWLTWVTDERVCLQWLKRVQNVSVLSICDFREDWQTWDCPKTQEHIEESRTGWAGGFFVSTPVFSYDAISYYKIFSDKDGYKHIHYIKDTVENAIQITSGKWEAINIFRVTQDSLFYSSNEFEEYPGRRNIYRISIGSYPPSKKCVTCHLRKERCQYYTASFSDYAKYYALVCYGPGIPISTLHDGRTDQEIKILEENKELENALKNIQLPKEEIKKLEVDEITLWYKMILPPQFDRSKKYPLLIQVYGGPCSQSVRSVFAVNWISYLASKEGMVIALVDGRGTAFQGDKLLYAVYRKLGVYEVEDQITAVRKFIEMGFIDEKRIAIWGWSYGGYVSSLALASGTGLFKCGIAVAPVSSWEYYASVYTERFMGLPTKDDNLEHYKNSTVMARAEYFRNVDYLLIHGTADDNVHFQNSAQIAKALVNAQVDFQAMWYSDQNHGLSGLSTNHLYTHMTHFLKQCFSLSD

Recombinant human FAP = target: T2, Recombinant human FAP (Homo sapiens, UniProt Q12884); assay: FRET-based FAP protease activity assay; format: biochemical
T2 construct: purchased R&D systems 3715-SE
T2 sequence (Q12884 26-760 limits assumed): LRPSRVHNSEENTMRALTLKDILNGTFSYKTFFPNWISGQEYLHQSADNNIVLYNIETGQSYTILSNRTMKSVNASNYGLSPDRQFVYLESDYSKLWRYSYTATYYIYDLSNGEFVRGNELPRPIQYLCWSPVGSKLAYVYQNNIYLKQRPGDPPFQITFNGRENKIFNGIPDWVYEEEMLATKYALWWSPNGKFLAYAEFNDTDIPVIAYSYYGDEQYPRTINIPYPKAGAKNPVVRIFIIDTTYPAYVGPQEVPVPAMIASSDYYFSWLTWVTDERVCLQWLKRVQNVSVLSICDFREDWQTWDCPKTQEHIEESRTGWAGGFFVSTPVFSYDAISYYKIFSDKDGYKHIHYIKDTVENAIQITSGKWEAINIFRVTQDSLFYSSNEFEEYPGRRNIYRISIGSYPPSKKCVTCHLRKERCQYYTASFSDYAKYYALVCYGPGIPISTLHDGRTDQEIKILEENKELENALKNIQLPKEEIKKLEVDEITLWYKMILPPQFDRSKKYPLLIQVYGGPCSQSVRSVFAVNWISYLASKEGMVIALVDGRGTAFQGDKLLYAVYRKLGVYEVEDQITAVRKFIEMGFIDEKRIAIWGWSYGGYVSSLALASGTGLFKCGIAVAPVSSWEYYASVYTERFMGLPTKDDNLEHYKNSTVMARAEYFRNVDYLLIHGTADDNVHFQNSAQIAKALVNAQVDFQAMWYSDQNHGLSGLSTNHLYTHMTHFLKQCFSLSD

[2] = competition with 3 nM Cy5-labeled compound, WI-38 fibroblasts, 4° C., 1 hour, read-out: pIC50 Category (FACS) (converted)
[3] = recombinant human FAP, FRET-peptide substrate, 37° C., read-out: pIC50 Category (Activity) (converted)

## CSCC[C@H](N)C(=O)N[C@H]1CSSC[C@@H](C(=O)N[C@@H](CC(=O)O)C(=O)N[C@@H](Cc2c[nH]cn2)C(=O)N[C@@H](Cc2ccccc2)C(=O)N[C@@H](CCCNC(=N)N)C(=O)N[C@@H](CC(=O)O)C(N)=O)NC(=O)[C@H](Cc2ccccc2)NC(=O)[C@H](CCC(=O)O)NC(=O)[C@H]([C@@H](C)O)NC(=O)[C@@H]2CCCN2C(=O)[C@@H]2CCCN2C1=O [Compound 1001, H-Met-[Cys-Pro-Pro-Thr-Glu-Phe-Cys]-Asp-His-Phe-Arg-Asp-NH2] (HELM PEPTIDE1{M.C.P.P.T.E.F.C.D.H.F.R.D.[am]}$PEPTIDE1,PEPTIDE1,2:R3-8:R3$$$V2.0)
[1]; [2]
  IC50: < 100 nM
Recombinant human FAP; [3]
  IC50: < 100 nM

## CCCCCC(=O)N[C@H]1CSSC[C@@H](C(=O)N[C@@H](CC(=O)O)C(=O)N[C@@H](Cc2c[nH]cn2)C(=O)N[C@@H](Cc2ccccc2)C(=O)N[C@@H](CCCNC(=N)N)C(=O)N[C@@H](CC(=O)O)C(N)=O)NC(=O)[C@H](Cc2ccccc2)NC(=O)[C@H](CCC(=O)O)NC(=O)[C@H]([C@@H](C)O)NC(=O)[C@@H]2CCCN2C(=O)[C@@H]2CCCN2C1=O [Compound 1002, Hex-[Cys-Pro-Pro-Thr-Glu-Phe-Cys]-Asp-His-Phe-Arg-Asp-NH2] (HELM PEPTIDE1{[CCCCCC(=O)[*:2]].C.P.P.T.E.F.C.D.H.F.R.D.[am]}$PEPTIDE1,PEPTIDE1,2:R3-8:R3$$$V2.0)
[1]; [2]
  IC50: < 100 nM
Recombinant human FAP; [3]
  IC50: < 100 nM

## CCCC[C@H](NC(=O)CCC(=O)NCCCOCCOCCOCCCNC(=O)CN1CCN(CC(=O)O)CCN(CC(=O)O)CCN(CC(=O)O)CC1)C(=O)N[C@H]1CSSC[C@@H](C(=O)N[C@@H](CC(=O)O)C(N)=O)NC(=O)[C@H](Cc2ccccc2)NC(=O)[C@H](CCC(=O)O)NC(=O)[C@H]([C@@H](C)O)NC(=O)[C@@H]2CCCN2C(=O)[C@@H]2CCCN2C1=O [Compound 1003, DOTA-Ttds-Nle-[Cys-Pro-Pro-Thr-Glu-Phe-Cys]-Asp-NH2] ({X4-Suc}-[Nle]CPPTEFCD-NH2; disulfide 2-8)
[1]; [2]
  IC50: < 100 nM
Recombinant human FAP; [3]
  IC50: < 100 nM

## CCCC[C@H](NC(=O)CN1CCN(CC(=O)O)CCN(CC(=O)O)CCN(CC(=O)O)CC1)C(=O)N[C@H]1CSSC[C@@H](C(=O)N[C@@H](CC(=O)O)C(N)=O)NC(=O)[C@H](Cc2ccccc2)NC(=O)[C@H](CCC(=O)O)NC(=O)[C@H]([C@@H](C)O)NC(=O)[C@@H]2CCCN2C(=O)[C@@H]2CCCN2C1=O [Compound 1004, DOTA-Nle-[Cys-Pro-Pro-Thr-Glu-Phe-Cys]-Asp-NHd2] (HELM PEPTIDE1{[O=C(O)CN1CCN(CC(=O)O)CCN(CC(=O)[*:2])CCN(CC(=O)O)CC1].[Nle].C.P.P.T.E.F.C.D.[am]}$PEPTIDE1,PEPTIDE1,3:R3-9:R3$$$V2.0)
[1]; [2]
  IC50: < 100 nM
Recombinant human FAP; [3]
  IC50: < 100 nM

## CCCC[C@H](NC(=O)COCCOCCNC(=O)CN1CCN(CC(=O)O)CCN(CC(=O)O)CCN(CC(=O)O)CC1)C(=O)N[C@H]1CSSC[C@@H](C(=O)N[C@@H](CC(=O)O)C(=O)N[C@@H](Cc2c[nH]cn2)C(=O)N[C@@H](Cc2ccccc2)C(=O)N[C@@H](CCCNC(=N)N)C(=O)N[C@@H](CC(=O)O)C(N)=O)NC(=O)[C@H](Cc2ccccc2)NC(=O)[C@H](CCC(=O)O)NC(=O)[C@H]([C@@H](C)O)NC(=O)[C@@H]2CCCN2C(=O)[C@@H]2CCCN2C1=O [Compound 1005, DOTA-O2Oc-Nle-[Cys-Pro-Pro-Thr-Glu-Phe-Cys]-Asp-His-Phe-Arg-Asp-NH2] (HELM PEPTIDE1{[O=C(O)CN1CCN(CC(=O)O)CCN(CC(=O)[*:2])CCN(CC(=O)O)CC1].[O=C(COCCOCCN[*:1])[*:2]].[Nle].C.P.P.T.E.F.C.D.H.F.R.D.[am]}$PEPTIDE1,PEPTIDE1,4:R3-10:R3$$$V2.0)
[1]; [2]
  IC50: < 100 nM
[1]; read-out: pIC50 (highest activity categories, FACS binding) (converted)
  IC50: < 100 nM
Recombinant human FAP; read-out: pIC50 (highest activity categories, FAP activity) (converted)
  IC50: < 100 nM
Recombinant human FAP; [3]
  IC50: < 100 nM

## CCCC[C@H](NC(=O)CCC(=O)NCCCOCCOCCOCCCNC(=O)CN1CCN(CC(=O)O)CCN(CC(=O)O)CCN(CC(=O)O)CC1)C(=O)N[C@H]1CSSC[C@@H](C(=O)N[C@@H](CC(=O)O)C(=O)N[C@@H](Cc2c[nH]cn2)C(=O)N[C@@H](Cc2ccccc2)C(=O)N[C@@H](CCCNC(=N)N)C(=O)N[C@@H](CC(=O)O)C(N)=O)NC(=O)[C@H](Cc2ccccc2)NC(=O)[C@H](CCC(=O)O)NC(=O)[C@H]([C@@H](C)O)NC(=O)[C@@H]2CCCN2C(=O)[C@@H]2CCCN2C1=O [Compound 1006, DOTA-Ttds-Nle-[Cys-Pro-Pro-Thr-Glu-Phe-Cys]-Asp-His-Phe-Arg-Asp-NH2] ({X4-Suc}-[Nle]CPPTEFCDHFRD-NH2; disulfide 2-8)
[1]; [2]
  IC50: < 100 nM
Recombinant human FAP; [3]
  IC50: < 100 nM

## CCCC[C@H](NC(=O)CCC(=O)NCCCOCCOCCOCCCNC(=O)CN1CCN(CC(=O)O)CCN(CC(=O)O)CCN(CC(=O)O)CC1)C(=O)N[C@H]1CSSC[C@@H](C(=O)N[C@@H](CC(=O)O)C(=O)NCc2ccc(C(=O)N[C@@H](CCCNC(=N)N)C(N)=O)cc2)NC(=O)[C@H](Cc2ccccc2)NC(=O)[C@H](CCC(=O)O)NC(=O)[C@H]([C@@H](C)O)NC(=O)[C@@H]2CCCN2C(=O)[C@@H]2CCCN2C1=O [Compound 1007, DOTA-Ttds-Nle-[Cys-Pro-Pro-Thr-Glu-Phe-Cys]-Asp-Pamb-Arg-NH2] ({X4-Suc}-[Nle]CPPTEFCD[4Amb]R-NH2; disulfide 2-8)
[1]; [2]
  IC50: < 100 nM
Recombinant human FAP; [3]
  IC50: < 100 nM

## CCCC[C@H](NC(=O)CCC(=O)NCCCOCCOCCOCCCNC(=O)CN1CCN(CC(=O)O)CCN(CC(=O)O)CCN(CC(=O)O)CC1)C(=O)N[C@H]1CSSC[C@@H](C(=O)N[C@@H](CC(=O)O)C(N)=O)NC(=O)[C@H](Cc2ccccc2)NC(=O)[C@H](CCC(N)=O)NC(=O)[C@H]([C@@H](C)O)NC(=O)[C@@H]2CCCN2C(=O)[C@@H]2CCCN2C1=O [Compound 1008, DOTA-Ttds-Nle-[Cys-Pro-Pro-Thr-Gln-Phe-Cys]-Asp-NH2] ({X4-Suc}-[Nle]CPPTQFCD-NH2; disulfide 2-8)
[1]; [2]
  IC50: < 100 nM
Recombinant human FAP; [3]
  IC50: < 100 nM
